Laboratory results from publication PMC7253423, “Quassinoid analogs with enhanced efficacy for treatment of hematologic malignancies target the PI3Kγ isoform” (Communications Biology, 2020).
Values joined by “and” are separate entries in the source; they are usually repeats but may differ in a detail not shown here. Equal values may be shown once. Read-outs that look alike come from different tables or passages of the source.

What was measured:
[1] = Cytotoxicity, cell viability assay in normal cells; format: cell-based, human; conditions: human, PBMC, fraction of 0 μM control, read-out: relative cell viability (Fig 6a), replicates
PBMC = test: Cytotoxicity, cell viability assay in normal cells; format: cell-based, human; conditions: Fig 5c
[2] = Cytotoxicity, cell viability assay in normal cells; format: cell-based; conditions: human, fraction of 0 μM control; for viability at 0.000244141 μM: Con. 0.000244141 μM; for viability at 0.015625 μM: Con. 0.015625 μM; for viability at 0.0625 μM: Con. 0.0625 μM; for viability at 1 μM: Con. 1 μM
[3] = In vivo toxicity test, survival rate; parameters: species or system NOD/SCID mice; conditions: for survival event status per mouse (Fig 6i; 1 = event/death, 0 = censored): 10mg/kg
Description: The survival rate was recorded to monitor the tolerance of the compounds in these mice.

K562 cells [4] = test: Cell viability assay (CellTiter-Glo luminescence); format: cell-based, human; conditions: K562, 100nM, 72 hours
Description: 5000 cells as indicated were cultured in 96-well plate with 100 μl of media. […] After treatment, the cells were incubated with 100 μl buffer for 10 min at room temperature following the instructions of CellTiter-Glo kit (Promega, Madison, WI). Luminescence was detected using a multi-mode reader Cytation 5 (BioTek, Winooski, VT). […] Two independent experiments done in duplicates were performed.

[5] = tested on: PDX-129 (B-cell Follicular lymphoma); test: Cell viability assay in patient-derived xenograft cells; format: cell-based, human; conditions: PDX-129, different concentrations, 72 h
Description: (§1) 5000 cells as indicated were cultured in 96-well plate with 100 μl of media. On the next day, Brusatol or associated analogs were added once to the cells without media change. After treatment, the cells were incubated with 100 μl buffer for 10 min at room temperature following the instructions of CellTiter-Glo kit (Promega, Madison, WI). Luminescence was detected using a multi-mode reader Cytation 5 (BioTek, Winooski, VT). […] Two independent experiments done in duplicates were performed.

[6] = tested on: PDX-223 (Diffuse large B cell lymphoma); test: as above; format: cell-based, human; conditions: PDX-223, different concentrations, 72 h
Description: as §1

[7] = tested on: PDX-255 (Burkitt's lymphoma); test: as above; format: cell-based, human; conditions: PDX-255, different concentrations, 72 h
Description: as §1

LCL1 cells [8] = test: RNA-Seq and Ingenuity Pathway Analysis (upstream regulator analysis); format: cell-based, human
Description: The cDNA library was prepared with the commercial Illumina library preparation kits (TruSeq Stranded RNA LT Ribo-Zero H/M/R Kit) according to the manufacturer’s protocols and sequenced with an Illumina HiSeq2000 instrument (Washington University Genome Sequencing Center). Quality check was performed on the raw RNA-Seq reads (FastQC, https://www.bioinformatics.babraham.ac.uk/projects/fastqc/), and the adapters were cut (Trim Galore, https://www.bioinformatics.babraham.ac.uk/projects/trim_galore/) and mapped with hg38 genome (HISAT2)[64]. Differentially expressed transcripts were defined with Cuffdiff tools[65] and visualized using R software (https://www.r-project.org/). Signaling pathway analysis was conducted with the Ingenuity Pathway Analysis program (QIAGEN Inc., https://www.qiagenbioinformatics.com/products/ingenuitypathway-analysis)[27].

LCL1 cells [9] = test: Real-time PCR, mRNA expression; format: cell-based, human
Description: (§2) Real-time PCR experiments were performed as previously described. The experiments were performed in triplicate.

Raji cells = test: Real-time PCR, mRNA expression; format: cell-based, human
Description: as §2

HL-60 cells = test: Western blot of PI3K/AKT signaling proteins; format: cell-based, human; conditions: HL-60, 0, 50 nM, 100 nM; 0, 12 h, 24 h
Description: (§3) Western blot analyses were performed as previously described. Briefly, total cell lysates were separated by SDS-PAGE gel and transferred to nitrocellulose membrane. The membranes were blocked with 5% non-fat milk, probed with specific antibodies, and visualized using the Odyssey scanner (LiCor Inc., Lincoln, NE).

K562 cells [10] = test: Western blot of PI3K/AKT signaling proteins; format: cell-based, human; conditions: K562, 0, 50 nM, 100 nM; 0, 12 h, 24 h
Description: as §3

LCL1 cells [11] = test: Western blot of PI3K/AKT signaling proteins; format: cell-based, human; conditions: LCL1, Fig. 2i
Description: as §3

SU-DHL-4 cells = test: Western blot of PI3K/AKT signaling proteins; format: cell-based, human; conditions: SU-DHL-4, 0, 50 nM, 100 nM; 0, 12 h, 24 h
Description: as §3

[12] = B-cells, read-out: relative cell viability (Fig 6c), replicates
[13] = T-cells, read-out: relative cell viability (Fig 6b), replicates
[14] = Brusatol-treated LCL1 cells, RNA-Seq, IPA

**Q.** What does the source list for `COC(=O)C12OCC34C(CC5C(C)=C(OC(=O)CNC(=O)OC(C)(C)C)C(=O)CC5(C)C3C(O)C1O)OC(=O)C(OC(=O)C=C(C)C)C24` (stereo not drawn) [#15]?
**A.** viability at 0.000244141 μM ([1]; Con. 0.000244141 μM): 104%; viability at 0.00390625 μM ([1]; Con. 0.00390625 μM): 91.7%; viability at 0.015625 μM ([1]; Con. 0.015625 μM): 76.5%; viability at 0.0625 μM ([1]; Con. 0.0625 μM): 74.9%; viability at 1 μM ([1]; Con. 1 μM): 61.2%; Cell viability, raw luminescence reading (PBMC; Con. 0.01 μM): 24385 and 24514; Cell viability, raw luminescence reading (PBMC; Con. 0.039 μM): 25686 and 22234; Cell viability, raw luminescence reading (PBMC; Con. 0.156 μM): 6585 and 8242; Cell viability, raw luminescence reading (PBMC; Con. 0.625 μM): 7188 and 7989; Cell viability, raw luminescence reading (PBMC; Con. 10 μM): 9130 and 9273; viability at 0.000244141 μM [2, 12]: 80.4%; viability at 0.00390625 μM ([2]; B-cells, Con. 0.00390625 μM, read-out: relative cell viability (Fig 6c), replicates): 96.8%; viability at 0.015625 μM [2, 12]: 100%; viability at 0.0625 μM [2, 12]: 89.1%; viability at 1 μM [2, 12]: 91.6%; viability at 0.000244141 μM [2, 13]: 101%; viability at 0.015625 μM [2, 13]: 83.4%; viability at 0.0625 μM [2, 13]: 82.3%; viability at 1 μM [2, 13]: 83.3%; toxicity in vivo (survival) ([3]; 10 mg/kg intraperitoneally every other day, monitored 24 days, 4 mice per group): obviously lethal for the majority of mice within the first 4 days; survival event status per mouse (Fig 6i; 1 = event/death, 0 = censored) ([3]; Days Post-treatment 2): 1; survival event status per mouse (Fig 6i; 1 = event/death, 0 = censored) ([3]; Days Post-treatment 3): 1; survival event status per mouse (Fig 6i; 1 = event/death, 0 = censored) ([3]; Days Post-treatment 4): 1

**Q.** With Brusatol as the compound, how does the killing (K562 cells [4]; experiment of Fig 3a) read?
**A.** more than 90%

**Q.** And the killing (K562 cells [4]; independent experiment of Fig 3b)?
**A.** approximately 50%

**Q.** What about the “inhibition of cell viability” value [5] of the same compound?
**A.** inhibited

**Q.** What about the “inhibition of cell viability” value [6] of the same compound?
**A.** inhibited

**Q.** What about the “inhibition of cell viability” value [7] of the same compound?
**A.** inhibited

**Q.** And the “Expr Other, upstream regulator ALDH1A2” value (LCL1 cells [8]; [14])?
**A.** -1.404

**Q.** And the “Expr Other, upstream regulator ARRB2” value (LCL1 cells [8]; [14])?
**A.** -0.306

**Q.** What about the “Expr Other, upstream regulator CBX5” value (LCL1 cells [8]; [14]) of the same compound?
**A.** -1.126

**Q.** What about the “Expr Other, upstream regulator CD22” value (LCL1 cells [8]; [14]) of the same compound?
**A.** 2.89

**Q.** And the “Expr Other, upstream regulator CDC73” value (LCL1 cells [8]; [14])?
**A.** -0.568

**Q.** What about the “Expr Other, upstream regulator CYLD” value (LCL1 cells [8]; [14]) of the same compound?
**A.** -1.473

**Q.** What about the “Expr Other, upstream regulator DICER1” value (LCL1 cells [8]; [14]) of the same compound?
**A.** 1.146

**Q.** And the “Expr Other, upstream regulator DNAJB6” value (LCL1 cells [8]; [14])?
**A.** 0.673

**Q.** And the “Expr Other, upstream regulator FKBP4” value (LCL1 cells [8]; [14])?
**A.** 0.61

**Q.** And the “Expr Other, upstream regulator GMNN” value (LCL1 cells [8]; [14])?
**A.** -1.679

**Q.** And the “Expr Other, upstream regulator GRN” value (LCL1 cells [8]; [14])?
**A.** 0.925

**Q.** And the “Expr Other, upstream regulator IFNGR1” value (LCL1 cells [8]; [14])?
**A.** 0.304

**Q.** What about the “Expr Other, upstream regulator KMT2D” value (LCL1 cells [8]; [14]) of the same compound?
**A.** -0.912

**Q.** And the “Expr Other, upstream regulator NONO” value (LCL1 cells [8]; [14])?
**A.** 1.295

**Q.** What about the “Expr Other, upstream regulator PAX8” value (LCL1 cells [8]; [14]) of the same compound?
**A.** 1.9

**Q.** And the “Expr Other, upstream regulator PTPRJ” value (LCL1 cells [8]; [14])?
**A.** -1.699

**Q.** And the “Expr Other, upstream regulator RARRES3” value (LCL1 cells [8]; [14])?
**A.** 2.648

**Q.** What about the “Expr Other, upstream regulator SOD2” value (LCL1 cells [8]; [14]) of the same compound?
**A.** 1.251

**Q.** And the “Expr Other, upstream regulator UPF2” value (LCL1 cells [8]; [14])?
**A.** -0.435

**Q.** And the “Expr Other, upstream regulator WDR5” value (LCL1 cells [8]; [14])?
**A.** 0.395

**Q.** What about the “Expr Other, upstream regulator ZC3H12A” value (LCL1 cells [8]; [14]) of the same compound?
**A.** -1.316

**Q.** What about the “CTNNA1 transcript (RNA-Seq)” value (LCL1 cells [8]; LCL1, 72 h) of the same compound?
**A.** dramatically downregulated

**Q.** And the “SLC22A1 transcript (RNA-Seq)” value (LCL1 cells [8]; LCL1, 72 h)?
**A.** highly upregulated

**Q.** What about the “mRNA levels of AKT1, ATF3, PIK3CG, and PIK3C2B” value (LCL1 cells [9]) of the same compound?
**A.** downregulated

**Q.** And the “mRNA levels of AKT1, ATF3, PIK3CG, and PIK3C2B” value (Raji cells)?
**A.** downregulated

**Q.** And the “protein expression of AKT1, GSK3, and mTOR” value (from here on “protein expression of AKT1”) (HL-60 cells)?
**A.** minimally affected

**Q.** And the “protein expression of AKT1” value (K562 cells [10])?
**A.** minimally affected

**Q.** What about the “levels of AKT1 and GSK3 proteins” value (LCL1 cells [11]) of the same compound?
**A.** decreased

**Q.** What about the “protein expression of AKT1” value (SU-DHL-4 cells) of the same compound?
**A.** substantially reduced
